# Where two headings read alike, the source gives them in different places.
# Columns and labels:
# [1] = test system: protein kinases (human kinome); format: cell-based
# [2] = molecular target: protein kinases (human kinome) (Homo sapiens, UniProt P51812); format: cell-based; conditions: RPS6KA3 (P51812), experiment wp076
# [3] = molecular target: protein kinases (human kinome) (Homo sapiens, UniProt Q14289); format: cell-based
# [4] = molecular target: T1, protein kinases (human kinome) (Homo sapiens, UniProt O14965); format: cell-based; conditions: experiment wp076
# T1 sequence (O14965 1-403): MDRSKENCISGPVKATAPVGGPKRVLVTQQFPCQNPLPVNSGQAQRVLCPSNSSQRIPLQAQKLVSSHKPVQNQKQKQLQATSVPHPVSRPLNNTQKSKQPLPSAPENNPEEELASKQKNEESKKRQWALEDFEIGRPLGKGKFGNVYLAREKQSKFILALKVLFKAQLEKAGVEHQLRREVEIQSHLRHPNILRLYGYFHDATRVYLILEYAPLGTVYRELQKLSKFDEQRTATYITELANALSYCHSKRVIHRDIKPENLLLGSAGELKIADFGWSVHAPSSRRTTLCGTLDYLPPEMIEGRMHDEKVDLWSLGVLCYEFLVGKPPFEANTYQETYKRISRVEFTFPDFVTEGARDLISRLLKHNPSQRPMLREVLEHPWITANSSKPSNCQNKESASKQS
# [5] = molecular target: protein kinases (human kinome) (Homo sapiens, UniProt P30291); format: cell-based; conditions: experiment wp076
# [6] = molecular target: T2, protein kinases (human kinome) (Homo sapiens, UniProt O60285); format: cell-based; conditions: NUAK1 (O60285), experiment wp076
# T2 sequence (O60285 1-661): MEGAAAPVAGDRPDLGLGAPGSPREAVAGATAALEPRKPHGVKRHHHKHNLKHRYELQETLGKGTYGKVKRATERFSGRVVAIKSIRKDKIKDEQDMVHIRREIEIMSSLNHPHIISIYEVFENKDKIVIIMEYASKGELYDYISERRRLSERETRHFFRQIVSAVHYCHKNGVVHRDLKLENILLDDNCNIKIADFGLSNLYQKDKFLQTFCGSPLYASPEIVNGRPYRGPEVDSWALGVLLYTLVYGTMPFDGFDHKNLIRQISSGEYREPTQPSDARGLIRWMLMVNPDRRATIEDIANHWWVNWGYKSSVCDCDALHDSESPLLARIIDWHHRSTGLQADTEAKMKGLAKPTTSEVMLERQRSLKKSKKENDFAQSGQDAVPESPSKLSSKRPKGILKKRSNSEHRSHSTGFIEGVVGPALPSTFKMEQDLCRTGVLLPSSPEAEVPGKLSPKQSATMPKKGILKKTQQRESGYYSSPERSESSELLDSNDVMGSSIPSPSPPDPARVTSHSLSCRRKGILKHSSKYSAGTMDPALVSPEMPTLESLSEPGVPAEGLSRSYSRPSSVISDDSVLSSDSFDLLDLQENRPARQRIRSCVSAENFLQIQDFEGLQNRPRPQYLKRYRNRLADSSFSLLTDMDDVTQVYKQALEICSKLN
# [7] = molecular target: T3, protein kinases (human kinome) (Homo sapiens, UniProt P52789); format: cell-based; conditions: HK2 (P52789); experiment wp076
# T3 sequence (P52789 1-917): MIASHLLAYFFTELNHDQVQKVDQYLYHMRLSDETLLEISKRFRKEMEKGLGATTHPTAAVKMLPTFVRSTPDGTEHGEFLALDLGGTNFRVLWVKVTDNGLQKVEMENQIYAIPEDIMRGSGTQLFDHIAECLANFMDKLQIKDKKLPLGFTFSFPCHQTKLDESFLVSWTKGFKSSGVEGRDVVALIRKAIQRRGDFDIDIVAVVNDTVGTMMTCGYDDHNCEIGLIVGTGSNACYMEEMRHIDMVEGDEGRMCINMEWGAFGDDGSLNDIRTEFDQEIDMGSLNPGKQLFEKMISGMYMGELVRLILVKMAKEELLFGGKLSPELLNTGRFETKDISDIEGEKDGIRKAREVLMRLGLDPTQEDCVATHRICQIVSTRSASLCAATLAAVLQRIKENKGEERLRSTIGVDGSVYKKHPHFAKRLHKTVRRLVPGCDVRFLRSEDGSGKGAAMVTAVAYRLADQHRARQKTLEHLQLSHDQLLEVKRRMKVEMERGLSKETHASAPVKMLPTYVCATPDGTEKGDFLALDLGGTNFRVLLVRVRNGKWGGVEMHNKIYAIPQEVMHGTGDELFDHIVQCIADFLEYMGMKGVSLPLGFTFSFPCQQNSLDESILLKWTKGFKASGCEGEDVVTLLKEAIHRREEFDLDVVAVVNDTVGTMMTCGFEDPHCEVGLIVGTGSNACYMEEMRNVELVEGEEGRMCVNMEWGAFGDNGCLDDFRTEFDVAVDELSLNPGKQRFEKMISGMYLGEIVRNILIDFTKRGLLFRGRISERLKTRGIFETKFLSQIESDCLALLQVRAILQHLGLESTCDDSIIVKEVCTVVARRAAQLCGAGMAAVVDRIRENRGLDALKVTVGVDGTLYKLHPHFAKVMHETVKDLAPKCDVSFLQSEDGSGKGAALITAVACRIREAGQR
# [8] = molecular target: protein kinases (human kinome) (Homo sapiens, UniProt Q9BYT3); format: cell-based; conditions: STK33 (Q9BYT3-1), experiment wp076
# [9] = molecular target: protein kinases (human kinome) (Homo sapiens, UniProt P49759); format: cell-based
# [10] = molecular target: T4, CRBN-degrader-kinase ternary complexes (Homo sapiens, UniProt Q96SW2); experiment: FLAG-CRBN affinity purification TMT LC-MS3 (AP-MS) of degrader-mediated ternary complexes; format: cell-based, H. sapiens; conditions: HEK293T, 1 μM, 5 h, proteasome inhibitor
# T4 construct: host or cells: HEK293T
# Text: An important aspect of protein degraders is the multifaceted nature of the molecule that enables heightened target selectivity due to differences in complementarity of target-ligase interactions, which is not a consideration when assessing selectivity of inhibitors for target engagement (Famaby el al., Nat Chem Biol 15:672-680 (2019)). For compound-induced degradation to be successful, productive ternary complex formation (ligase-degrader-POI) is necessary for proximity-mediated ubiquitin transfer onto the POI. […] Cellular affinity purification was performed, followed by mass spectrometry (AP-MS) of FLAG-tagged CRBN transiently overexpressed in HEK293T cells. FLAG-CRBN expressing cells were co-treated with proteosome inhibitor and 1 μM of each degrader for 5 h, and the degree of kinase target enrichment was compared to kinase degradation hits in matched global proteomics analysis experiments (FIG. 3A, FIG. 3C). The proteins identified as complexed with CRBN were enriched for kinases as well as their known binding partners such as Cyclin B (CDK1) and RASSF1 (STK4), consistent with the binding profiles of the assayed degraders. All kinases identified by AP-MS except CSNK1A1 were also detected in the HEK293T whole proteome degrader profiling experiment, allowing us to interrogate trends across 52 unique kinases (FIG. 4A; FIG. 11B). Limitations of this experiment include the potential loss of transient or weakly bound complexes in the enrichment and subsequent wash steps, the inherent noise associated with AP-MS relative to global proteomics analysis (Dunham et al., Proteomics 12:1576-1590 (2012): Yugandhar et al., Comput Struct Biotechnol J 17:805-811 (2019)) and the short time point of the experiment, which precludes detection of degradation events with slow kinetics. Therefore, the relationship between the formation of abundant, stable ternary complexes and rapid degradation was assessed.
# HEK293T cells were seeded into 15 cm plates and cells were transiently transfected with 8 μg of pNTM-FLAG-CRBN construct using lipofectamine 2000. […] Cells were harvested with non-enzymatic CellStripper™ Dissociation reagent (Corning®), followed by three washes with cold PBS and snap freezing. Cell lysis was performed by the addition of IP lysis buffer (50 mM Tris. pH 7.5, 0.5% NP-40, 1 mM EDTA, 10% glycerol and 200 mM NaCl) containing protease inhibitor cocktail (cOmplete™) and relevant co-treatment (above), followed by end-over-end rotation at 4° C. for 3 hours. Lysate was clarified by centrifugation and salt concentration diluted to 100 mM NaCl with the addition of 0 mM NaCl lysis buffer (containing protease inhibitors and 1 μM of relevant compounds to retain temary complexes throughout binding). Lysate was added to 20 μL of pre-washed anti-FLAG M2 magnetic bead slurry (MilliporeSigma) and incubated with end-over-end rotation at 4° C. overnight. Beads were washed six times with 100 mM NaCl lysis buffer containing 1 μM of relevant degraders to retain ternary complexes throughout wash steps.
# Proteins were eluted in a two-step elution with the addition of 0.1 M Glycine hydrochloride (MilliporeSigma) and elution buffered to pH 8.5 using 200 mM Tris buffer, pH 8.5. […] Protein pellets were resuspended in 50 μL of EPPs pH 8 and first digested with 2 μg LysC for 12 h at room temperature (RT), followed by 1 μg of trypsin for 6 hours at 37° C.
# [11] = format: cell-based, H. sapiens; conditions: MOLT-4, 1 μM, 5 h, 5 μM CB-5083
# CRBN = molecular target: T5, CRBN (Homo sapiens, UniProt Q96SW2); experiment: Competitive displacement assay for cellular CRBN engagement (BRD4BD2-GFP reporter, dBET6); format: cell-based, H. sapiens; conditions: 5 hours in presence of dBET6
# T5 construct: HEK293T cells stably expressing the BRD4BD2-GFP with mCherry reporter; endogenous in cells; host or cells: HEK293T stably expressing BRD4BD2-GFP / mCherry reporter
# Description: HEK293T cells stably expressing the BRD4BD2-GFP with mCherry reporter were seeded at 30-50% confluency in 384-well plates with 50 μL FluoroBrite™ Dulbecco's Modified Eagle's medium (DMEM) media (Thermo Fisher Scientific. A18967) containing 10% fetal bovine serum (FBS) per well a day before compound treatment. Degrader titrations and 100 nM dBET6 or 250 nM AT1 were dispensed using a D300e Digital Dispenser (HP), normalized to 0.5% DMSO, and incubated with cells for 5 hours. Assay plates were imaged using Acumen® (TTP Labtech), as described above.
# [12] = molecular target: protein kinases (human kinome) (Homo sapiens, UniProt Q16877); format: cell-based; conditions: PFKFB4 (Q16877); experiment wp071
structure (smiles),measurement,setting,value
CNC(=O)c1ccccc1Nc1cc(Nc2ccc(N3CCN(CCCCCCCCNc4cccc5c4C(=O)N(C4CCC(=O)NC4=O)C5=O)CC3)cc2OC)ncc1C(F)(F)F (centres unmarked) [MFH.5.116.1],logFC RPS6KA1,"[1]; RPS6KA1 (Q15418-2), experiment wp076",−0.5757
same,logFC RPS6KA1 (Q15418-2),[1]; experiment wp076,−0.5757
same,logFC,[2],−0.369
same,logFC,[2]; direction down,−0.369
same,logFC,"[3]; PTK2B (Q14289-1) protein abundance, degrader vs DMSO, down",−2.946
same,logFC PTK2B,"[3]; PTK2B, accession Q14289-1, experiment wp076, direction of change down",−2.946
same,logFC AURKA (O14965),[4],−0.707
same,logFC of WEE1,"[5]; WEE1 P30291-1, degrader vs DMSO",−0.4799
same,logFC WEE1 (P30291-1),[5],−0.4799
same,logFC,[6],−0.7078
same,logFC,[6]; direction down,−0.7078
same,logFC,[7],−0.4347
same,logFC,[8],−1.382
same,logFC,[8]; direction down,−1.382
Cc1ncsc1-c1ccc([C@H](C)NC(=O)[C@@H]2C[C@@H](O)CN2C(=O)[C@@H](NC(=O)CCOCCOCCOCCN2CCC(C(=O)Nc3ncc(SCc4ncc(C(C)(C)C)o4)s3)CC2)C(C)(C)C)cc1 [ZZ.01.31B],logFC,"[1]; CDK9 (P50750-2) protein abundance, degrader vs DMSO, down",−0.837
same,logFC CDK9 (P50750-2),[1]; Experiment wp195,−0.837
same,logFC CLK1,"[9]; CLK1 P49759, experiment wp195",−0.3482
same,logFC of CLK1 (P49759),[9]; Experiment wp195,−0.3482
Nc1ncc(-c2ccc(S(=O)(=O)N(CCCNC(=O)CCOCCOCCOCCOCCOCCNc3cccc4c3C(=O)N(C3CCC(=O)NC3=O)C4=O)C3CC3)cc2)cc1-c1ccc2c(c1)CCNC2=O (centres unmarked) [WH-10417-099],IRAK1: ternary complex formation with CRBN versus degradation,[10],complex formation does not predict degradation
same,STK4 degradation rescue on p97 inhibition,[11],very little degradation rescue
same,targets with significantly different degrader efficacy in the different cell lines with no obvious difference in protein expression,"[1]; MOLT-4, KELLY, HEK293T",GSK3B
same,kinases the bifunctional compound degrades,[1]; as stated for the structure in the embodiments,"CDK14, CSNK1A1, CSNK1D, CSNK1E, GSK3A, GSK3B, LIMK2, MAP3K1, MINK1, NUAK1, PAK4, PIM2, STK10, STK17B, STK35, and STK4"
same,Kinase hits,"[1]; kinases significantly downregulated vs DMSO (fold change cutoff −1.25, P-value<0.01), ≤8 h, 0.1-5 μM degrader, 7 cell lines","CDK14, CSNK1A1, CSNK1D, CSNK1E, GSK3A, GSK3B, LIMK2, MAP3K1, MINK1, NUAK1, PAK4, PIM2, STK10, STKI7B, STK35, STK4"
same,Total no. kinase hits,[1]; number of degraded kinases per library compound,13
same,cellular permeability / CRBN engagement,CRBN,able to permeate the cell membrane and bind to the CRBN E3 ligase
COc1cc(N2CCN(CC(=O)NCCCCCCNc3cccc4c3C(=O)N(C3CCC(=O)NC3=O)C4=O)CC2)ccc1Nc1ncc2c(n1)N(C)c1ccccc1C(=O)N2CC(F)(F)F (centres unmarked) [FMF.04.135.1],logFC,[12],−0.4969

# Reference: patent US20240269139A1, “COMPOUNDS FOR TARGETED PROTEIN DEGRADATION OF KINASES” (DANA-FARBER CANCER INSTITUTE, INC., priority 2020, published 2024)
